Laboratory results as given in ChEMBL document CHEMBL1144745, “Alkyne-quinuclidine derivatives as potent and selective muscarinic antagonists for the treatment of COPD” (Bioorg Med Chem Lett, 2008).
Calls of active or inactive are those of the source. The calls are words filed in the database; no cut-off is given here.

Legend:
[1] = organism: Cavia porcellus; experiment: (§1) Antagonist activity at muscarinic M2 receptor in carbachol-stimulated guinea pig left atrium; assay type: functional, tissue-based; settings: Cardiac atrium
[2] = target: Muscarinic acetylcholine receptor M3 (Homo sapiens, UniProt P20309); experiment: Displacement of [3H]N-methylscopolamine from human recombinant muscarinic M3 receptor expressed in CHO cells; assay type: cell-based
[3] = target: T1, Muscarinic acetylcholine receptor M2 (Homo sapiens, UniProt P08172); experiment: Displacement of [3H]N-methylscopolamine from human recombinant muscarinic M2 receptor expressed in CHO cells; assay type: cell-based
T1 sequence (P08172 whole entry): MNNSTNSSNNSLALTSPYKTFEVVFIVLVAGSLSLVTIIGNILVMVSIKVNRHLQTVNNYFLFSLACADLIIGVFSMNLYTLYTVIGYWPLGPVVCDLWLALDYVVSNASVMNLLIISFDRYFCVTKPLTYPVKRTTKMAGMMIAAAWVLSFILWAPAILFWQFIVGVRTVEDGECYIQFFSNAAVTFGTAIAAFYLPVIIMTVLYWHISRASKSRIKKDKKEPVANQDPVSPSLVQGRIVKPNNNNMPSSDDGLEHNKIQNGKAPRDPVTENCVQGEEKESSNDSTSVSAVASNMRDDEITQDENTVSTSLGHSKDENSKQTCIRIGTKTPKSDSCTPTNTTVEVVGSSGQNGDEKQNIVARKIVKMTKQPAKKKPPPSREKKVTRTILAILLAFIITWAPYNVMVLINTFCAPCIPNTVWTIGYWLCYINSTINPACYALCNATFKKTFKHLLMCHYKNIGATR

[4] = target: Muscarinic acetylcholine receptor M3 (Cavia porcellus, UniProt Q8VH26); experiment: Antagonist activity at muscarinic M3 receptor in carbachol-stimulated guinea pig trachea; assay type: functional; settings: read-out: pA2 (converted)
[5] = as §1; assay type: functional, tissue-based; settings: Cavia porcellus, Cardiac atrium; read-out: pA2 (converted)
[6] = target: Muscarinic acetylcholine receptor M3 (Cavia porcellus) (UniProt Q8VH26); experiment: Reversible inhibition of muscarinic M3 receptor in electrically-stimulated guinea pig trachea assessed as recovery of maximal effect at >280 min; assay type: tissue-based; design: scale not given: the % may be the effect or the level left
Chain of Muscarinic acetylcholine receptor M3 (Cavia porcellus) (Q8VH26 1-587): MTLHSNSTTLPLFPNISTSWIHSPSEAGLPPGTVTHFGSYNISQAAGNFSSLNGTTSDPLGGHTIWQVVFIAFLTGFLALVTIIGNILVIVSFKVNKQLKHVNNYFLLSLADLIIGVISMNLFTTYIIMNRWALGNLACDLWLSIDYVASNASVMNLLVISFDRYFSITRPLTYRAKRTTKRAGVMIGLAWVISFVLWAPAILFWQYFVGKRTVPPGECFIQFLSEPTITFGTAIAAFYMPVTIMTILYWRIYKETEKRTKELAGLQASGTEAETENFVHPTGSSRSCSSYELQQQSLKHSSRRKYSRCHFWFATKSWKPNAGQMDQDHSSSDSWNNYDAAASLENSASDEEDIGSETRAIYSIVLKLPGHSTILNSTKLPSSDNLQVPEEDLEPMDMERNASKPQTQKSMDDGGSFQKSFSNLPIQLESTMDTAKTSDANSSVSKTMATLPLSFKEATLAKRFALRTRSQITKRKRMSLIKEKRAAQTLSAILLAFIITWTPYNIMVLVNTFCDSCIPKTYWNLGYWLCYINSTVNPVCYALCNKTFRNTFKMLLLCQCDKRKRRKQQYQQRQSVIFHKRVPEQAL

Chain of Muscarinic acetylcholine receptor M3 (Homo sapiens, UniProt P20309) (P20309 whole entry): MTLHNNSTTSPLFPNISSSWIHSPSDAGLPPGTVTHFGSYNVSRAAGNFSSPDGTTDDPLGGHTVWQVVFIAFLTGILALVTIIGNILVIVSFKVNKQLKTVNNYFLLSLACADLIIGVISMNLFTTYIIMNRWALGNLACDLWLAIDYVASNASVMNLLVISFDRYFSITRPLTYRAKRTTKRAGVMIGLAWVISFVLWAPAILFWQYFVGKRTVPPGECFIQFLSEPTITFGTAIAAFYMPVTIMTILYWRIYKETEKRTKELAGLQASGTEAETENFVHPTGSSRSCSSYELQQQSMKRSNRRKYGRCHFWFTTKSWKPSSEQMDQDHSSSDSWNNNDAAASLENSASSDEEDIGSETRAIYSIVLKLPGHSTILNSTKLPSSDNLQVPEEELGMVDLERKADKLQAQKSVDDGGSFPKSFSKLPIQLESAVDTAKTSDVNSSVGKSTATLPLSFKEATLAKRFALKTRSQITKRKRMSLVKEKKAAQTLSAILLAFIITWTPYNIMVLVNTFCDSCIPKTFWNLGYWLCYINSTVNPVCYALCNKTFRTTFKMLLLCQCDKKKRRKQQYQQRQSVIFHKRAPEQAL
Chain of Muscarinic acetylcholine receptor M3 (Cavia porcellus, UniProt Q8VH26) (Q8VH26 whole entry): as the sequence (Q8VH26 1-587) above

| Structure (SMILES) | Activity [1] | Ki [2] [nM] | Ki [3] [nM] | Kb [4] [nM] | Kb [5] [nM] | Activity [6] [%] |
| --- | --- | --- | --- | --- | --- | --- |
| CO[C@]1(C#CC(O)(c2ccccc2)c2ccccc2)CN2CCC1CC2 | Active |  |  |  |  |  |
| CO[C@]1(C#C[C@](O)(c2ccccc2)C2CCCCCCC2)CN2CCC1CC2 |  | 0.316 | 3.16 | 6.31 | 31.6 | 20 |
| CO[C@]1(C#C[C@@](O)(c2ccccc2)C2CCCCCCC2)CN2CCC1CC2 | Active | 2.51 | 31.6 |  |  |  |
| CC(C)[N+]1(C)C2CCC1CC(OC(=O)[C@H](CO)c1ccccc1)C2 (stereo not given in full) | Active |  |  |  |  |  |
| COC1(C#CC(C)(c2ccccc2)c2ccccc2)CN2CCC1CC2 (stereo not given) | Active | 15.8 | 39.8 |  |  |  |
| CO[C@]1(C#C[C@](O)(c2ccccc2)C2CCCCC2)CN2CCC1CC2 | Active |  |  |  |  |  |
| COC(C#C[C@@]1(OC)CN2CCC1CC2)(c1ccccc1)c1ccccc1 | Active | 10 | 158 |  |  |  |
| CO[C@]1(C#C[C@](O)(c2ccccc2)C2CCCCCC2)CN2CCC1CC2 |  | 0.316 | 2.51 | 6.31 | 5.01 | 20 |
| CO[C@]1(C#C[C@@](O)(c2ccccc2)C2CCCCCC2)CN2CCC1CC2 | Active | 2 | 20 |  |  |  |
| CO[C@]1(C#C[C@@](O)(c2ccccc2)C2CCCCC2)CN2CCC1CC2 | Active |  |  |  |  |  |
| COC1(C#CC(C#N)(c2ccccc2)c2ccccc2)CN2CCC1CC2 (stereo not given) | Active | 2.51 | 6.31 |  |  |  |
| C[N+]1(C)[C@@H]2C[C@@H](OC(=O)C(O)(c3cccs3)c3cccs3)C[C@H]1[C@@H]1O[C@@H]12 | Active |  |  |  |  |  |
